In US9078868B2, “Therapeutic agent for accelerating recovery of animal under medical treatment” (UNIVERSITY OF MIYAZAKI, priority 2010, dated 2015):
No end group written: not given here. *: point of attachment. Octanoyl = CCCCCCCC(=O)*

What was measured:
[1] = system: hospitalized animals (canines and felines) after surgery; assay: Example 1: single dose of ghrelin in hospitalized animals after surgery, parameters before vs after administration; format: in vivo; conditions: for Body temperature: animals improved/animals evaluated / Biochemical tests: animals improved/animals evaluated / Body temperature: response rate / Activity (vigor): animals improved/animals evaluated / Hematology tests: animals improved/animals evaluated: single dose
Experimental: In these Examples, a canine-derived ghrelin (a peptide compound in which a side chain hydroxyl group of the serine residue at the 3rd position from the amino terminus is acylated with an n-octanoyl group in SEQ ID NO: 1) was used as ghrelin. The canine-derived ghrelin was chemically synthesized and then lyophilized, and a canine-derived ghrelin for administration containing 0.1, 0.3, 0.5, or 1 mg per vial of a canine-derived ghrelin was prepared.
To administer ghrelin to animals, the canine-derived ghrelin was dissolved to a concentration of 1 mg/2 mL in physiological saline and intravenously, subcutaneously, or intramuscularly injected after the dose was adjusted depending on the body weight.
Animals hospitalized in veterinary hospitals, particularly canines and felines, were used for treatment. These animals may or may not have undergone a surgery for treatment. The surgeries performed on the animals were pyometra surgery, surgical removal of a reproductive organ, surgical removal of mammary gland tumor, ovary cyst surgery, liver cell tumor surgery, disc hernia surgery, diaphragmatic hernia surgery, fracture surgery, gastrointestinal tract surgery, and urethroplasty.
Physical conditions in animals with various pathological conditions were examined by measuring parameters including activity (vigor), blood cell test values, biochemical test values, urinalysis, electrolyte tests, body weight, body temperature, the degree of anger or anxiety, respiratory rate, and the like to evaluate the effect of improving physical conditions in the animals. The effect was evaluated by comparing various evaluation parameters before and after administration.
The evaluation parameters used were activity (vigor), body temperature, hematology parameters (blood cell test values), serum biochemistry parameters (biochemical test values), the degree of anger or anxiety, and respiratory rate. […] The degree of anger or anxiety of an animal observed visually by an observer were also evaluated using the following criteria: 1. calm and accustomed to a health care professional, 2. able to be touched by but unaccustomed to a health care professional and restless, 3. wandering around or hiding in the kennel with anxiety, 4. able to be barely touched, and 5. too violent to be touched by a health care professional and tends to bite.
13.2 to 80 μg/kg of a canine-derived ghrelin (chemically synthesized) was administered by an intravenous injection, a subcutaneous injection, or an intramuscular injection (solution for an injection: physiological saline or the like) to 32 animals (canines and felines) after surgery which were hospitalized in veterinary hospitals. The 32 cases of the animals were as follows.
Pyometra surgery and surgical removal of reproductive organ, 18 animals; mammary gland tumor surgery, three animals (including one animal also having pyometra); disc hernia surgery, two animals; surgery for a fracture or a traffic accident injury, three animals; urethroplasty, three animals; gastrointestinal tract surgery, two animals; and pneumothorax surgery, one animal.
Improvement of physical conditions of these animals was evaluated in terms of activity (vigor), body temperature, hematology parameters (blood cell test values), and serum biochemistry parameters (biochemical test values).

[2] = system: animals which did not ingest food after administration of ghrelin; assay: Example 4: improvement in animals which did not ingest food after administration of ghrelin; format: in vivo, canines and felines
Description: Diseases: Rib fracture, chronic renal failure, falling accident, infectious respiratory syndrome, hemobartonellosis, FIV, FELV infection, CPV infection, habu bite, diarrhea, vomiting, mammary gland tumor, traffic accident, fracture surgery, urinary retention, renal failure, urethroplasty, urinary retention, forelimb trauma Number of animals: 15 Activity improved: 11/13 (2, not evaluated; 2 unchanged) GPT value improved: 3/3 GOT value improved: 2/2 BUN value improved: 2/2 CRE value improved: 2/2 CPK value improved: 1/1 ALP value improved: 1/1 WBC value improved: 1/1 (decreased) PLT value improved: 2/2 Body temperature decreased: 2/2

[3] = gastrointestinal tract surgery, 2 animals
[4] = pyometra surgery and surgical removal of reproductive organ, 18 animals
[5] = surgical removal of mammary gland tumor, 3 animals
[6] = total, 32 animals after surgery
[7] = animals which did not ingest food

GSS (n-octanoyl) FLSPEHQKLQQRKESKKPPAKLQPR (GSS(Octanoyl)FLSPEHQKLQQRKESKKPPAKLQPR; listed as Canis familiaris) [ghrelin, chemically synthesized, lyophilized]
Body temperature: animals improved/animals evaluated ([1]; disc hernia surgery, 2 animals): 1/1 | Serum creatinine (Cre) value after administration ([1]; example, animal after surgery, before administration 6.0 mg/dL): 1.1 mg/dL | Blood urea nitrogen (BUN) value after administration ([1]; example, animal after surgery, before administration 44.2 mg/dL): 29.3 mg/dL | Total cholesterol (T-CHO) value after administration ([1]; example, animal after surgery, before administration 405 mg/dL): 260 mg/dL | Glutamic pyruvic transaminase (GPT) value after administration ([1]; example, animal after surgery, before administration 180 IU/L): 85 IU/L | Alkaline phosphatase (ALP) value after administration ([1]; example, animal after surgery, before administration 345 IU/L): 286 IU/L | Creatinine phosphokinase (CPK) value after administration ([1]; example, animal after surgery, before administration 1429 IU/L): 955 IU/L | C-reactive protein (CRP) value after administration ([1]; example, animal after surgery, before administration upper limit of measurement): 7.3 mg/dL | White blood cell count after administration ([1]; example, animal after surgery, high count decreased, before administration 44.1×10^3/μL): 17700 µL⁻¹ | Platelet count after administration ([1]; example, animal after surgery, low count increased, before administration 13.9×10^4/μL): 585000 µL⁻¹ | Red blood cell count after administration ([1]; example, animal after surgery, low count increased, before administration 214×10^4/μL): 3.04e+06 µL⁻¹ | Hemoglobin level after administration ([1]; example, animal after surgery, low level increased): 7.7 g/dL | Biochemical tests: animals improved/animals evaluated [1, 3]: 1/1 | Body temperature: animals improved/animals evaluated [1, 3]: 1/1 | Body temperature: animals improved/animals evaluated ([1]; pneumothorax surgery, 1 animal): 0/1 | Body temperature: response rate ([1]; pneumothorax surgery, 1 animal): (0%) | Activity (vigor): animals improved/animals evaluated [1, 4]: 6/7 | Biochemical tests: animals improved/animals evaluated [1, 4]: 3/3 | Body temperature: animals improved/animals evaluated [1, 4]: 3/4 | Hematology tests: animals improved/animals evaluated [1, 4]: 3/4 | Activity (vigor): animals improved/animals evaluated ([1]; surgery for fracture or traffic accident injury, 3 animals): 3/3 | Activity (vigor): animals improved/animals evaluated [1, 5]: 2/2 | Biochemical tests: animals improved/animals evaluated [1, 5]: 1/1 | Body temperature: animals improved/animals evaluated [1, 5]: 1/1 | Hematology tests: animals improved/animals evaluated [1, 5]: 1/1 | Activity (vigor): animals improved/animals evaluated [1, 6]: 11/12 | Biochemical tests: animals improved/animals evaluated [1, 6]: 5/6 | Body temperature: animals improved/animals evaluated [1, 6]: 5/8 | Hematology tests: animals improved/animals evaluated [1, 6]: 4/6 | Activity (vigor): animals improved/animals evaluated ([1]; urethroplasty, 3 animals): 1/1 | Biochemical tests: animals improved/animals evaluated ([1]; urethroplasty, 3 animals): 1/2 | Body temperature: animals improved/animals evaluated ([1]; urethroplasty, 3 animals): 0/1 | Body temperature: response rate ([1]; urethroplasty, 3 animals): (0%) | Hematology tests: animals improved/animals evaluated ([1]; urethroplasty, 3 animals): 1/2 | Activity improved: animals improved/animals evaluated ([2]; 15 animals which did not ingest food, 2 not evaluated, 2 unchanged): 11/13 | ALP value improved: animals improved/animals evaluated [2, 7]: 1/1 | BUN value improved: animals improved/animals evaluated [2, 7]: 2/2 | Body temperature decreased: animals improved/animals evaluated [2, 7]: 2/2 | CPK value improved: animals improved/animals evaluated [2, 7]: 1/1 | CRE value improved: animals improved/animals evaluated [2, 7]: 2/2 | GOT value improved: animals improved/animals evaluated [2, 7]: 2/2 | GPT value improved: animals improved/animals evaluated [2, 7]: 3/3 | PLT value improved: animals improved/animals evaluated [2, 7]: 2/2 | WBC value improved (decreased): animals improved/animals evaluated [2, 7]: 1/1
